{"source": "patent US8076073B2", "about": "“Cholesterol and hedgehog signaling” (The Johns Hopkins University School of Medicine, priority 1998, dated 2011)", "key": {"[1]": {"test_system": "COS7 cells", "assay": "Jervine inhibition of cholesterol biosynthesis, [3H]-mevalonic acid labelling and HPLC sterol analysis", "type": "cell-based", "parameters": "radiolabelled cholesterol levels / another radiolabelled sterol, tentatively identified as zymosterol: dose or concentration left out as unconfirmed", "source_text": "Given the structural similarities of these compounds to cholesterol and the similar teratogenic effects of cholesterol synthesis inhibitors upon the offspring of pregnant rats, a reasonable mechanism to consider for the effects of these plant sterol derivatives was the inhibition of cholesterol biosynthesis. Accordingly, we tested COS7 cultured cells treated with jervine for defects in cholesterol biosynthesis by labelling with [3H]-mevalonic acid and then extracting and analyzing radiolabelled, non-saponifiable lipids. […] Given the similarities in their teratogenic effects, this inhibition seems likely to underlie the teratogenic effects of both the synthetic and natural compounds.\nGiven the structural similarities of these compounds to cholesterol and the similar teratogenic effects of cholesterol synthesis inhibitors upon the offspring of pregnant rats, a reasonable mechanism to consider for the effects of these plant sterol derivatives was the inhibition of cholesterol biosynthesis. Accordingly, COS7 cultured cells treated with jervine were tested for defects in cholesterol biosynthesis by labelling with [3H]-mevalonic acid and then extracting and analyzing radiolabelled, non-saponifiable lipids. Metabolic labeling and sterol analysis was essentially as described (Popjak et al. J. Biol. Chem. 264: 630-6238.1989; Rilling et al. 1993 Arch. Biochem. Biophys. 301: 210-215.), with minor modifications. Briefly, COS-7 cells were plated at ˜35% confluence into two 60 mm dishes at 37° C. in 4 ml each of Dulbecco's modified Eagle's medium (DMEM) supplemented with 10% fetal bovine serum (FBS). After 24 hr of growth the medium in each dish was replaced with 2 ml fresh medium with 10% FBS; [^3H]-mevalonic acid (NEN #NET 176) brought to a specific activity of 0.8 Ci/mmol in a 1% solution of bovine serum albumin was added to this medium to a final concentration of […]. At this time, one dish received […] of a 4 mg/ml solution of jervine in ethanol (final concentration […] jervine), and the other received […] of ethanol. […]"}, "[2]": {"test_system": "pregnant ewes / newborn lambs", "conditions": "grazing by pregnant ewes; cited from earlier work"}, "[3]": {"molecular_target": "T1, Hh protein (Drosophila melanogaster, UniProt Q02936)", "T1 construct": "made in house", "T1 sequence (Q02936 1-471)": "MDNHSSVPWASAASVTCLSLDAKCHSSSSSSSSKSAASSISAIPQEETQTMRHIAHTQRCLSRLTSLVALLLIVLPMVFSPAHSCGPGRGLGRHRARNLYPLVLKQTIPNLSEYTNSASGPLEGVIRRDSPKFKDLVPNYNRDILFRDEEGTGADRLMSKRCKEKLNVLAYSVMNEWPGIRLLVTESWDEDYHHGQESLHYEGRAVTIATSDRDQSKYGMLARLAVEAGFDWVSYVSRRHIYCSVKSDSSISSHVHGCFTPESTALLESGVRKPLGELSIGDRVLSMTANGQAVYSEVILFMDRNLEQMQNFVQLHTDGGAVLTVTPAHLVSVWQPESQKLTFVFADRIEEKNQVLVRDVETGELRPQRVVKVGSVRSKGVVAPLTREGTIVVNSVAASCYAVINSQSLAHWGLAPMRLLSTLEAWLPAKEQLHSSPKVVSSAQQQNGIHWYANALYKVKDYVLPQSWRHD", "conditions": "relatively low concentrations; nucleophile in the second step; cited from earlier work"}, "[4]": {"test_system": "pregnant rats", "conditions": "treatment of pregnant rats; cited from earlier work"}, "[5]": {"test_system": "enzymes of cholesterol biosynthesis", "conditions": "cited from earlier work"}, "[6]": {"test_system": "7-dehydrocholesterol reductase", "conditions": "cited from earlier work"}, "[7]": {"test_system": "mice", "conditions": "mice with hypomorphic apoB mutation (truncated apoB, reduced cholesterol levels); cited from earlier work"}, "[8]": {"conditions": "COS7 cells labelled with [3H]-mevalonic acid, 24 hr, jervine (b16 and b71 print 28=|M), versus ethanol control"}}, "note": "Entries after “also recorded” stand apart in the source; their conditions may differ."}
{"smiles": "CC1=C2C(=O)[C@H]3[C@@H](CC=C4C[C@@H](O)CC[C@@]43C)[C@@H]2CC[C@]12O[C@@H]1C[C@H](C)CN[C@H]1[C@H]2C", "note": "[jervine]", "values": [{"measurement": "another radiolabelled sterol, tentatively identified as zymosterol", "setting": "[1]; [8]", "result": "found to accumulate; also recorded: increased levels"}, {"measurement": "radiolabelled cholesterol levels", "setting": "[1]; [8]", "result": "reduced levels"}, {"measurement": "inhibition of cholesterol biosynthesis in cultured cells", "setting": "[1]; COS7 cells, jervine at these concentrations", "result": "inhibits cholesterol biosynthesis"}, {"measurement": "congenital craniofacial malformations in newborn lambs", "setting": "[2]", "result": "responsible"}]}
{"smiles": "CC1=C2C[C@H]3[C@@H](CC=C4C[C@@H](O)CC[C@@]43C)[C@@H]2CC[C@]12O[C@@H]1C[C@H](C)CN[C@H]1[C@H]2C", "note": "[cyclopamine]", "values": [{"measurement": "congenital craniofacial malformations in newborn lambs", "setting": "[2]", "result": "responsible"}]}
{"smiles": "CC(C)CCC[C@@H](C)[C@H]1CC[C@H]2[C@@H]3CC=C4C[C@@H](O)CC[C@]4(C)[C@H]3CC[C@]12C", "note": "[Cholesterol, cholesterol]", "values": [{"measurement": "effect on in vitro autoprocessing reaction", "setting": "[3]", "result": "stimulates"}]}
{"smiles": "O=C(O)c1ccc(CCN2CCN(C/C=C/c3ccc(Cl)cc3)CC2)cc1", "note": "[BM 15.766]", "values": [{"measurement": "induction of HPE-like malformations", "setting": "[4]", "result": "HPE-like malformations can be induced"}, {"measurement": "sterol precursor abnormally accumulated", "setting": "[5]", "result": "7-dehydrocholesterol"}, {"measurement": "inhibition of 7-dehydrocholesterol reductase", "setting": "[6]", "result": "inhibited"}, {"measurement": "teratogenesis, resulting defects", "setting": "[7]", "result": "severe holoprosencephaly"}]}
{"smiles": "CCN(CC)CCOc1ccc(C(O)(Cc2ccc(Cl)cc2)c2ccc(C)cc2)cc1", "note": "(stereo not drawn) [Triparanol]", "values": [{"measurement": "induction of HPE-like malformations", "setting": "[4]", "result": "HPE-like malformations can be induced"}, {"measurement": "sterol precursor abnormally accumulated", "setting": "[5]", "result": "desmosterol"}]}
{"smiles": "Cl.Cl.Clc1ccccc1CNCC1CCC(CNCc2ccccc2Cl)CC1", "note": "(stereo not drawn) [AY 9944R]", "values": [{"measurement": "induction of HPE-like malformations", "setting": "[4]", "result": "HPE-like malformations can be induced"}, {"measurement": "sterol precursor abnormally accumulated", "setting": "[5]", "result": "7-dehydrocholesterol"}, {"measurement": "inhibition of 7-dehydrocholesterol reductase", "setting": "[6]", "result": "inhibited"}]}
